From ChEMBL document CHEMBL1201862, “PubChem BioAssay data set” (2004)
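Exposure lasted 48 hours, with cells grown in 96-well plates and compounds tested at five concentrations. Here, GI50 denotes the concentration required for 50% inhibition of growth.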 Active and inactive are the calls of the source. No stated cut-off is given here; in the data, active = GI50 up to about 1.1 µM and inactive = higher.

Experiments:
Test in all cases: growth of human tumour cells (NCI), 48 h
[1] = test system: A498
[2] = test system: A549
[3] = test system: HL-60
[4] = test system: HOP-92
[5] = test system: K562
[6] = test system: KM12
[7] = test system: LOX IMVI
[8] = test system: NCI-H23
[9] = test system: OVCAR-5
[10] = test system: RPMI-8226
[11] = test system: SK-MEL-28
[12] = test system: SK-MEL-2
[13] = test system: SN12C
[14] = test system: SNB-75
[15] = test system: UACC-62
[16] = test system: UO-31
[17] = test system: SK-OV-3

| Compound | GI50 [1] | GI50 [2] | GI50 [3] | GI50 [4] | GI50 [5] | GI50 [6] | GI50 [7] | GI50 [8] | GI50 [9] | GI50 [10] | GI50 [11] | GI50 [12] | GI50 [13] | GI50 [14] | GI50 [15] | GI50 [16] | GI50 [17] |
| --- | --- | --- | --- | --- | --- | --- | --- | --- | --- | --- | --- | --- | --- | --- | --- | --- | --- |
| N#CC(C(=O)/C(=N/N)C(C#N)c1ccc(Cl)cc1)c1ccc(Cl)cc1 (configuration not stated) | > 100 µM (inactive) | > 100 µM (inactive) | > 100 µM (inactive) | > 100 µM (inactive) | > 100 µM (inactive) | > 100 µM (inactive) | > 100 µM (inactive) | > 100 µM (inactive) | > 100 µM (inactive) | > 100 µM (inactive) | > 10 µM (inactive) | > 100 µM (inactive) | > 100 µM (inactive) | > 100 µM (inactive) | > 100 µM (inactive) | > 100 µM (inactive) |  |
| CCc1cc(CCC(=O)Nc2ccccc2[N+](=O)[O-])nc(S)n1 |  | > 100 µM (inactive) | > 100 µM (inactive) | > 100 µM (inactive) | > 100 µM (inactive) | > 100 µM (inactive) | > 100 µM (inactive) | > 100 µM (inactive) | > 100 µM (inactive) |  | > 100 µM (inactive) | > 100 µM (inactive) |  |  | > 100 µM (inactive) | > 100 µM (inactive) | > 100 µM (inactive) |
| Clc1ccccc1C1SCc2nc3ccccc3n21 (configuration not stated) |  | 32.6 µM (inactive) | 13 µM (inactive) | 8.79 µM (inactive) | 21.6 µM (inactive) | 30.8 µM (inactive) | 26.4 µM (inactive) | 25.4 µM (inactive) | 17.6 µM (inactive) | 20 µM (inactive) | 28.5 µM (inactive) | 22 µM (inactive) | 18 µM (inactive) | 3.97 µM (inactive) | > 10 µM (inactive) |  | 27.6 µM (inactive) |
| CC(C)=CC(=O)C1c2cccc(O)c2C(=O)c2c(O)cc(C)cc21 (configuration not stated) | 10.7 µM (inactive) | 1.92 µM (inactive) | 3.24 µM (inactive) | 2.75 µM (inactive) | 2.65 µM (inactive) | 1.63 µM (inactive) | 1.86 µM (inactive) | 2.44 µM (inactive) | 2.34 µM (inactive) | 3.61 µM (inactive) | 3.05 µM (inactive) | 1.98 µM (inactive) | 5.71 µM (inactive) | 2.12 µM (inactive) |  | 2.09 µM (inactive) | 2.81 µM (inactive) |
| CCOC(=N)CC(=O)c1ccccc1 | > 100 µM (inactive) | > 100 µM (inactive) | > 100 µM (inactive) | > 100 µM (inactive) | > 100 µM (inactive) | > 100 µM (inactive) | > 100 µM (inactive) | > 100 µM (inactive) | > 100 µM (inactive) |  | > 100 µM (inactive) | > 100 µM (inactive) | > 100 µM (inactive) | > 100 µM (inactive) | > 100 µM (inactive) | > 100 µM (inactive) | > 100 µM (inactive) |
| COC1OC(COCc2ccc(Cl)cc2)C(OCc2ccc(Cl)cc2)C1O (configuration not stated) |  | 17.3 µM (inactive) | 11.6 µM (inactive) | 11.2 µM (inactive) | 16.2 µM (inactive) | 15 µM (inactive) | 16.9 µM (inactive) | 15.8 µM (inactive) | 16.1 µM (inactive) | 23.9 µM (inactive) | 16.9 µM (inactive) | 16.3 µM (inactive) | 14.9 µM (inactive) | 17.5 µM (inactive) | 16.2 µM (inactive) | 15.1 µM (inactive) | 33.9 µM (inactive) |
| CCCCCCC(C)OC(=O)/C=C(\CC(=O)OC(C)CCCCCC)C(=O)OC(C)CCCCCC (configuration not stated) | > 100 µM (inactive) | > 100 µM (inactive) | > 100 µM (inactive) | > 100 µM (inactive) |  |  | > 100 µM (inactive) | > 100 µM (inactive) | > 100 µM (inactive) | > 100 µM (inactive) | > 100 µM (inactive) | > 100 µM (inactive) | > 100 µM (inactive) | > 100 µM (inactive) | > 100 µM (inactive) | > 100 µM (inactive) | > 100 µM (inactive) |
| O=C(CCn1[nH]c(=O)c(Cl)c(Cl)c1=O)NO | > 100 µM (inactive) | > 100 µM (inactive) | > 100 µM (inactive) |  | > 100 µM (inactive) | > 100 µM (inactive) | > 100 µM (inactive) | > 100 µM (inactive) | > 100 µM (inactive) | > 100 µM (inactive) | > 100 µM (inactive) | > 100 µM (inactive) | > 100 µM (inactive) | > 100 µM (inactive) | > 100 µM (inactive) | > 100 µM (inactive) | > 100 µM (inactive) |
| COC12OCCN(CCO)C1=CC(=O)C1(C)N=NC(C)C12 (configuration not stated) | > 100 µM (inactive) | > 100 µM (inactive) |  | > 100 µM (inactive) | > 100 µM (inactive) | > 100 µM (inactive) | > 100 µM (inactive) | > 100 µM (inactive) |  | > 100 µM (inactive) | > 100 µM (inactive) |  | > 100 µM (inactive) | > 100 µM (inactive) | > 100 µM (inactive) | > 100 µM (inactive) | > 100 µM (inactive) |
| COc1ccc2nc(NC(=O)C(=O)CC(=O)c3ccc(Cl)cc3)sc2c1 | > 100 µM (inactive) | 67.1 µM (inactive) | > 100 µM (inactive) | 30.5 µM (inactive) |  | 35.1 µM (inactive) |  | > 100 µM (inactive) |  |  | > 100 µM (inactive) | > 100 µM (inactive) | > 100 µM (inactive) | 29.4 µM (inactive) | 68.7 µM (inactive) | 69 µM (inactive) | 34.7 µM (inactive) |
| CSCC1CC(c2ccc(Cl)cc2)=NO1 (configuration not stated) | > 100 µM (inactive) | > 100 µM (inactive) | > 100 µM (inactive) | > 100 µM (inactive) | > 100 µM (inactive) | > 100 µM (inactive) |  | > 100 µM (inactive) | > 100 µM (inactive) | > 100 µM (inactive) | > 100 µM (inactive) | > 100 µM (inactive) | > 100 µM (inactive) | > 100 µM (inactive) | > 100 µM (inactive) | > 100 µM (inactive) | > 100 µM (inactive) |
| CCCCCCCCCCCCC(Br)C(=O)NCC(N)=O (configuration not stated) | 13.6 µM (inactive) | 15.6 µM (inactive) | 4.57 µM (inactive) | 3.7 µM (inactive) |  | 14.2 µM (inactive) | 12.4 µM (inactive) | 4.51 µM (inactive) | 29.4 µM (inactive) |  | 15.2 µM (inactive) | 11.7 µM (inactive) | 1.73 µM (inactive) | 0.118 µM (active) | 5.86 µM (inactive) | 2.09 µM (inactive) | 41.6 µM (inactive) |
| O=C(CC(=O)C(F)(F)F)c1csc2ccccc12 |  | 62.2 µM (inactive) | > 10 µM (inactive) |  | 24.8 µM (inactive) | 38.9 µM (inactive) | 25 µM (inactive) | 29.4 µM (inactive) | 53 µM (inactive) | 24.8 µM (inactive) | 14.1 µM (inactive) | 22 µM (inactive) | 25 µM (inactive) |  | 32.2 µM (inactive) | 27.9 µM (inactive) | 18 µM (inactive) |
| O=c1oc2c3ccc4ccccc4c3n(CCN3CCOCC3)c2c2ccccc12 |  | 5.42 µM (inactive) | 87.9 µM (inactive) | > 100 µM (inactive) | 3.89 µM (inactive) | > 100 µM (inactive) | 4.06 µM (inactive) |  |  | 46.5 µM (inactive) | > 100 µM (inactive) |  |  | 6.08 µM (inactive) | 3.68 µM (inactive) | 0.622 µM (active) | > 100 µM (inactive) |
